The target of this assay is T1, nanoLuc TRAP1 in SHSY5Y cells (Homo sapiens, UniProt Q12931).
T1 construct: expressed in transfected cells; host or cells: SHSY5Y cells, transient transfection with FuGENE HD
T1 sequence (Q12931 60-704): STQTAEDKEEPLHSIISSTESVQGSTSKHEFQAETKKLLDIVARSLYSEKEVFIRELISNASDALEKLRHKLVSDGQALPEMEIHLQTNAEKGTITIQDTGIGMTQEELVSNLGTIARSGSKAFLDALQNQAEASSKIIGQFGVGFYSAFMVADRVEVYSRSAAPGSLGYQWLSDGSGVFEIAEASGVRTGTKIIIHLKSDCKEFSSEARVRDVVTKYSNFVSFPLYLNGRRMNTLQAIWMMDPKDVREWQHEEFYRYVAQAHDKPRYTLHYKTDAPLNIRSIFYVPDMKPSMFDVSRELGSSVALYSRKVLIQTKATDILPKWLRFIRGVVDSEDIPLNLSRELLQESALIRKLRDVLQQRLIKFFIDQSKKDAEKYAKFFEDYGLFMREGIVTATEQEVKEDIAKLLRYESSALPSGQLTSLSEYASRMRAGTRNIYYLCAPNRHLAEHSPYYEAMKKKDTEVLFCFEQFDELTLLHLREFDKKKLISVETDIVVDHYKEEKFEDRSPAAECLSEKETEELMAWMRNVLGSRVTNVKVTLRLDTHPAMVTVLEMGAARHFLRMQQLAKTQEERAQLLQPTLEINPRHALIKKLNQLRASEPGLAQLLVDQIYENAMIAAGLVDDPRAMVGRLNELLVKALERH
As to the kind of experiment: NanoBRET in-cell target engagement assay. It is filed as cell-based. Here is the method: In-cell target engagement assays were performed as described in Robers M. B. et al. (2019) Quantitative, Real-Time Measurements of Intracellular Target Engagement Using Energy Transfer. In: Ziegler S., Waldmann H. (eds) Systems Chemical Biology. Methods in Molecular Biology, vol 1888. Humana Press, New York, N.Y.; Machleidt et al., ACS Chem. Biol. 2015, 10, 8, 1797-1804; or Vasta et al., Cell Chemical Biology 25, 206-214, Feb. 15, 2018; or as described herein.
Below is a protocol for transient transfection of SHSY5Y cells with NanoLuc® fusions. • 1. Cultivate SHSY5Y cells appropriately prior to assay in MEM w NEAA supplemented with 10% FBS. • 2. Remove medium from cell flask via aspiration, trypsinize, and allow cells to dissociate from the flask. • 3. Neutralize trypsin using growth medium and pellet cells via centrifugation at 200 g for 5 minutes. • 4. Aspirate medium and re-suspend cells into a single cell suspension using complete cell culture medium. • 5. Adjust the cell density to 300K/mL in cell culture medium in a sterile, conical tube. • 6. Prepare lipid:DNA complexes as follows (this covers two assay plates, adjust numbers for more plates) • a. Prepare a 10 μg/mL solution of DNA in Opti-MEM without serum. This solution should contain the following ratios of carrier DNA and DNA encoding NanoLuc® fusion. • i. 5.0 μg/mL of Transfection Carrier DNA (pGEM) • ii. […]

Turning to `COc1ncc(NC(=O)c2csc(-c3ccccc3)n2)cc1S(=O)(=O)Nc1c(C)cccc1C` [compound 1178], the “displacement of fluorescent nanoBRET tracer (probe-385) from nanoLuc TRAP1” value (SHSY5Y cells, tracer titration, compound 20 PM, FIG. 13) was “displacement of the tracer”. The “displacement of nanoBRET tracer (probe-385) from nanoLuc TRAP1, concentration response” value (live SHSY5Y cells, tracer 1 μM, FIG. 14) is on record as “displacing the nanoBRET tracer molecule”.

(Values after patent US20230159509A1 (Amathus Therapeutics, Inc., priority 2020, published 2023).)
